Experiment [1] deals with mesenchymal breast cancer lines. The conditions noted are these: at concentrations that inhibit LYN kinase activity; cited from earlier work.
Experiment [2] shares this test system. The note with it: at concentrations that inhibit LYN kinase activity; cited from earlier work. The source holds these as a separate data set.
Experiment [3] has as its system LYN. The conditions noted are these: BT549 cells, Western blot; cited from earlier work. (A western blot detects proteins with antibodies after separation by electrophoresis.)
Experiment [4] concerns the target T1, Lyn(h) (Homo sapiens, UniProt P07948).
T1 construct: purchased Millipore (Dundee UK), contract testing service
Briefly: Millipore kinase profiling, Lyn. It is filed as biochemical. The conditions noted are these: 100 μM concentration. The procedure: (§1) The three compounds identified in Example 1 were tested for kinase activity at Millipore (Dundee UK). The compounds were shipped as 10 mM stocks in DMSO as per Millipore testing standards. The testing consisted of two initial phases:
(§2) (a) Profiling against a set of approximately 60 kinases, selected as representative of all kinases and current kinase drug targets, to determine the selectivity of the compounds; and, (b) IC50 testing againstr EGFR, the kinase target of the initial search template molecule.

Experiment [5] has as its target T2, Pim-1(h) (Homo sapiens, UniProt P11309).
T2 construct: purchased Millipore (Dundee UK), contract testing service
In words: Millipore kinase profiling, Pim-1. The conditions noted are these: 100 μM concentration. It is filed as biochemical. The procedure: as §1, §2

Experiment [6] has as its target T3, WNK3(h) (Homo sapiens, UniProt Q9BYP7).
T3 construct: purchased Millipore (Dundee UK), contract testing service
Briefly: Millipore kinase profiling, WNK3. The conditions noted are these: 100 μM concentration. It is filed as biochemical. How it is done:
as §1, §2

In experiment [7] the target is CamK1 (Homo sapiens, UniProt Q14012). Briefly: Kinase profiling, CamK1. The conditions noted are these: 100 μM concentration. It is filed as biochemical. How it is done:
(§3) FIG. 9 is a schematic kinome tree illustrating the evolutionary relationships between 299 kinases. The inhibition of 68 representative kinases by VI301 at 100 μM concentration was evaluated.
as §1, §2

The target of experiment [8] is Abl kinase (BCR-Abl) (Homo sapiens, UniProt P00519). Briefly: Kinase profiling, Abl. The conditions noted are these: 100 μM concentration. It is filed as biochemical. The procedure:
as §3, §1, §2

T1 sequence (P07948 1-491 isoform P07948-2): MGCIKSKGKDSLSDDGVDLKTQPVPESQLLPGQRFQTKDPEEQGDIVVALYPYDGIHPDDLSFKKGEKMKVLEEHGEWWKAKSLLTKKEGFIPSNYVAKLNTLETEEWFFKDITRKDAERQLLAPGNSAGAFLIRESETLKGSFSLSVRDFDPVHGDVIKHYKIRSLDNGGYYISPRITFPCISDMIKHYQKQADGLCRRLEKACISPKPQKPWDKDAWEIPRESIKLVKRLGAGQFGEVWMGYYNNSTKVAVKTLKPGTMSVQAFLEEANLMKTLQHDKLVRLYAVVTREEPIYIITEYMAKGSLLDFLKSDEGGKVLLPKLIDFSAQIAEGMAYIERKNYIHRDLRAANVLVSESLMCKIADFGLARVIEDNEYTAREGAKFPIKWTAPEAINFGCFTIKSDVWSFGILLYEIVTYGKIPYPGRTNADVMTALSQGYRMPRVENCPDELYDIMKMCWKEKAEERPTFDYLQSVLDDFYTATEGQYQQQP
Chain of Abl kinase (BCR-Abl) (P00519 27-1130 limits assumed): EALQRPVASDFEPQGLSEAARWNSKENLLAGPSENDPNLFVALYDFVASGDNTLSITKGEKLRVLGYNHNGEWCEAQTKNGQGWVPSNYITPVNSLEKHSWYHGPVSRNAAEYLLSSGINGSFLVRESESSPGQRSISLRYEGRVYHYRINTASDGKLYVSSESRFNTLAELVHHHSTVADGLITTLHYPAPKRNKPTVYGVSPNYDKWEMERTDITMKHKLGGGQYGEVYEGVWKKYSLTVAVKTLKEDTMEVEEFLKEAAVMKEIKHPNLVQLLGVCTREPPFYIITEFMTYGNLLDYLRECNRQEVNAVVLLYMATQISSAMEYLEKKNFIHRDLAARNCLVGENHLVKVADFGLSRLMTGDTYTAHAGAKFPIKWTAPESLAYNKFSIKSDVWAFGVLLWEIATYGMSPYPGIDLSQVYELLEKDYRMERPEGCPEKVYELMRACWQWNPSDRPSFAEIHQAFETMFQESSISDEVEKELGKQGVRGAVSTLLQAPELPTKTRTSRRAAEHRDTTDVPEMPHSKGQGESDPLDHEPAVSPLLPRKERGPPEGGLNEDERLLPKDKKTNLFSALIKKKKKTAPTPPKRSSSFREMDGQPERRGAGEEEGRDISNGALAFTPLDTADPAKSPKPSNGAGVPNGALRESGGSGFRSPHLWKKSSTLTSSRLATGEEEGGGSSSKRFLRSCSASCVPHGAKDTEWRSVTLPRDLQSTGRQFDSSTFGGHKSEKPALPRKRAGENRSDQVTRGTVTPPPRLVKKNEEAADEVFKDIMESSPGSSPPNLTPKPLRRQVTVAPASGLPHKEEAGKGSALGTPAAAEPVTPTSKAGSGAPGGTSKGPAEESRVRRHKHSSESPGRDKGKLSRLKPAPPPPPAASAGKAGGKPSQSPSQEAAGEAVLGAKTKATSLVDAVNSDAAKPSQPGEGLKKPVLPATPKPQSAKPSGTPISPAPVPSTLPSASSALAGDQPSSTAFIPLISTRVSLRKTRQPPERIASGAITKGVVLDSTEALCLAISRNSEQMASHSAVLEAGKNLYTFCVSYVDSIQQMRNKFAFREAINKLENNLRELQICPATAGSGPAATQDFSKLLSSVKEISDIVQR
T3 sequence (Q9BYP7 whole entry): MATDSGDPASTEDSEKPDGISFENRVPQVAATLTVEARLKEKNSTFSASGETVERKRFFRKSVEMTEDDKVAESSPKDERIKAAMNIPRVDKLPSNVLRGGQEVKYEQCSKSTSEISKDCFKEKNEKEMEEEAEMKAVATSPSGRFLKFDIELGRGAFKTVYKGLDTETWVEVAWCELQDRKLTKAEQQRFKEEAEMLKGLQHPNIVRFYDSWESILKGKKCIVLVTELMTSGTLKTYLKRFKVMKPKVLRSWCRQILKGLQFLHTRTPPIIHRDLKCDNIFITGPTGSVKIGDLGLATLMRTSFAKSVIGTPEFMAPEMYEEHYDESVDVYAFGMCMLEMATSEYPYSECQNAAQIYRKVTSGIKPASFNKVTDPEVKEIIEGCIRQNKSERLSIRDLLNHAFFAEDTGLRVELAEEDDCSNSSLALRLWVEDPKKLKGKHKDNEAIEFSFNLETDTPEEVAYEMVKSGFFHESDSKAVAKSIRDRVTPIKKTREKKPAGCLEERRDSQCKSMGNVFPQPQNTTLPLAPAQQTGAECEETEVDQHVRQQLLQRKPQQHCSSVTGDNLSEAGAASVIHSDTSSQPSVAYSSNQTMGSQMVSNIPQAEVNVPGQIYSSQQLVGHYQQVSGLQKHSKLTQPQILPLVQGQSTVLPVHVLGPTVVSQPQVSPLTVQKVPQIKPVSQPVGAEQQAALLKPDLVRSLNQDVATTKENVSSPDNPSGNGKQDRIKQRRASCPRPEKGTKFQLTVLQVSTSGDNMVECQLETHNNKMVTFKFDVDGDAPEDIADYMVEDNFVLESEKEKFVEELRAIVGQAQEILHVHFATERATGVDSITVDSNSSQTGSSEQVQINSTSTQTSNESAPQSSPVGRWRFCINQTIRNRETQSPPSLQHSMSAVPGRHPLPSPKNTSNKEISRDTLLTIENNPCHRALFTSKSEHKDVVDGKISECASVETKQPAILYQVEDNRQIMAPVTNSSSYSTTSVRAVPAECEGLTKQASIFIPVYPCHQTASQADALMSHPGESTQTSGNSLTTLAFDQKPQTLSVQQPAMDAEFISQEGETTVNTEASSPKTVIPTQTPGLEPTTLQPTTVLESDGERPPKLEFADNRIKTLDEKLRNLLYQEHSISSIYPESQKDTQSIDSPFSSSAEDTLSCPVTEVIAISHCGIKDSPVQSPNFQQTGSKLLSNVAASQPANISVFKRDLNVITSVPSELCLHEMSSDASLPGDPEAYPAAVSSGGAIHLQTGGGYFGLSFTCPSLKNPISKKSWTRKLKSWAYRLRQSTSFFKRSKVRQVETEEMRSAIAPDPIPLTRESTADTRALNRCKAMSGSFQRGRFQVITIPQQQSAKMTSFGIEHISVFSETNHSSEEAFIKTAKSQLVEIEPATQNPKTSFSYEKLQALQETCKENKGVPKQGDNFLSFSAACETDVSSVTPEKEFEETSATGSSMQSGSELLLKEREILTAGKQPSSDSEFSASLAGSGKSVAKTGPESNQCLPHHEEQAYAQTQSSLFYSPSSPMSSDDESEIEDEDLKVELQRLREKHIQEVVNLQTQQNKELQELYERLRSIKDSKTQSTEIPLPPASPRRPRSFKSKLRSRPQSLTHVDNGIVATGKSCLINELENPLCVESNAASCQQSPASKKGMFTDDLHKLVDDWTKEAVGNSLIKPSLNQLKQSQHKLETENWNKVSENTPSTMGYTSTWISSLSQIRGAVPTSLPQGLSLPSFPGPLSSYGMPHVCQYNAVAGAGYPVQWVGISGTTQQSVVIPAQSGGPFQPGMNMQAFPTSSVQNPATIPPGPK
T2 sequence (P11309 whole entry): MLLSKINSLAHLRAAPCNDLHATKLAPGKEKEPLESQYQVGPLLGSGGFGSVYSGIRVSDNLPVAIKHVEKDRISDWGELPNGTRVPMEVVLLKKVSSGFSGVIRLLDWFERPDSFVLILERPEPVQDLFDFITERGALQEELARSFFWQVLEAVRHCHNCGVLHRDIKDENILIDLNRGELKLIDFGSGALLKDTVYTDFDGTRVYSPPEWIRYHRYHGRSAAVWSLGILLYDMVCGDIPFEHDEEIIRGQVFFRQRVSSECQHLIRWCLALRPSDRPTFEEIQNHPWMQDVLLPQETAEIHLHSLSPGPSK

As to `Cc1nc(Nc2ncc(C(=O)Nc3c(C)cccc3Cl)s2)cc(N2CCN(CCO)CC2)n1` [Dasatinib, N-(2-chloro-6-methylphenyl)-2-[[6-[4-(2-hydroxyethyl)-1-piperazinyl]-2-methyl-4-pyrimidinyl]amino]-5-thiazole carboxamide], in experiment [1], the cell invasion result is reported as “blocked invasion”. For the same compound, the cell proliferation entry in experiment [2] is recorded as “not proliferation”. Further, the “phosphorylated (activated) LYN” value in experiment [3] was “decreased phosphorylated (activated) LYN”.

`Cc1nn2c(ncc3c(=O)n(-c4ccccc4)ccc32)c1-c1ccccc1` [VI301, 2-methyl-3,7-diphenylpyrazolo[1,5-a]pyrido[3,4-e]pyrimidin-6(7H)-one]: the inhibition – broadly, the relative decrease from the control value, in per cent – at 100 µM in experiment [4] turned out to be 95%; in experiment [5] it was 12%; in experiment [6], 3%; in experiment [7], 26%; in experiment [8], 106%. In addition, the “inhibition of LYN kinase (in words)” value in experiment [4] is listed as “good inhibition”.

Source of the values: US20130203789A1, “Novel Inhibitors of LYN Kinase and Methods Using Same” (VASSA INFORMATICS, priority 2012, published 2013).
